One compound from patent US10696686B2, “Herbicidally active (alkynyl-phenyl)-substituted cyclic dione compounds and derivatives thereof” (Syngenta Limited, priority 2013, dated 2020) can be followed below.

Holding throughout (type): in vivo
Assay [1] concerns Abutilon theophrasti (ABUTH). The assay is described as follows: Biological Example 1A glasshouse assay, post-emergence application. Particulars: 312 h, 13 days after application, read-out: Percentage phytotoxicity ABUTH. Here is the method:
(§1) Seeds of a variety of test plant species were sown in standard soil ** in pots. After cultivation for one day (pre-emergence) or after 8 days cultivation (post-emergence) under controlled conditions in a glasshouse (at 24/16° C., day/night; 14 hours light; 65% humidity), the plants were sprayed with an aqueous spray solution derived from the formulation of the technical active ingredient (the test herbicide) in acetone/water (50:50) solution containing 0.5% Tween 20 (polyoxyethylene sorbitan monolaurate, CAS Reg. No. 9005-64-5). The test plants were then grown on under controlled conditions in a glasshouse (at 24/16° C., day/night; 14 hours light; 65% humidity) and watered twice daily. 13 Days after application of the test herbicide, for pre- and post-emergence, the test was evaluated visually for percentage phytotoxicity to each plant (where 100%=total damage to plant; 0%=no damage to plant). Generally, each test herbicide is only tested on 1 plant per plant species for each application rate tested and for each application timing. ** The “standard soil” in Biological Example 1 is usually a “sand” or “sandy loam” type of soil.
(§2) Dicotyledonous weeds: ABUTH=Abutilon theophrasti; AMARE=Amaranthus retroflexus. Grassy monocotyledonous weeds: SETFA=Setaria faberi; ALOMY=Alopecurus myosuroides; ECHCG=Echinochloa crus-galli; ZEAMX=Zea mays (corn, maize, e.g. volunteer corn). For Compound A16, the grassy monocotyledonous weed LOLPE (Lolium perenne) was used in the test insterad of ALOMY.

The test system of assay [2] is Zea mays (ZEAMX, corn, maize, e.g. volunteer corn). The description is as above. Particulars: Zea mays, 312 h, post-emergence, 13 days after application, read-out: Percentage phytotoxicity ZEAMX. How it is done:
as §1, §2

Assay [3] concerns Setaria faberi (SETFA). The description is as above. Particulars: Setaria faberi, 312 h, post-emergence, 13 days after application, read-out: Percentage phytotoxicity SETFA. How it is done: as §1, §2
Assay [4] concerns Lolium perenne (LOLPE). Described as above. Particulars: 13 days after application. How it is done: as §1, §2
Assay [5] has as its system Amaranthus retroflexus (AMARE). The assay is described as above. Particulars: 312 h, 13 days after application, read-out: Percentage phytotoxicity AMARE. Here is the method: as §1, §2
Assay [6] concerns Echinochloa crus-galli (ECHCG). The assay is described as above. Particulars: 312 h, 13 days after application, read-out: Percentage phytotoxicity ECHCG. How it is done: as §1, §2
Assay [7] has as its system grassy (in particular warm climate grassy) monocotyledonous weeds. The assay is described as follows: Post-emergence herbicidal activity, summary statements on Biological Examples 1 to 3. Particulars: applied at about 250 g/ha post-emergence; Biological Examples 1 and 2. How it is done: as §1
Seeds of a variety of monocotyledonous and dicotyledonous test plants are sown in standard soil in pots. The plants are cultivated for one day (for pre-emergence) or for about 12 days (range=10-13 days) (for post-emergence) under controlled conditions in a glasshouse (warm climate species at 24/18° C., cool climate species at 20/16° C., both at day/night; 16 hours light; 65% humidity). An “instant formulation”, known as the “IF50”, containing 50 g/litre (i.e. 5% w/v) of the “technical” (i.e. unformulated) active ingredient is prepared by dissolving the active ingredient in a mixture of organic solvents and emulsifier, details of which are provided in the Table below. […]
The test plants are then grown on, in a glasshouse (greenhouse) under controlled conditions (at either 24/18° C. or 20/16° C. (day/night) as mentioned above; 16 hours light; 65% humidity) and are watered twice daily. Either 14 or 15 days after application of the herbicide (14 or 15 DAA) (for post-emergence), or 20 days after application of the herbicide (20 DAA) (for pre-emergence), the test plants are evaluated visually, and an assessed percentage phytotoxicity score is given for each herbicidal application on each plant species (where 100%=total damage to plant; 0%=no damage to plant). […]

Assay [8] deals with Abutilon theophrasti (ABUTH). As to the kind of experiment: Biological Example 1B glasshouse assay, pre-emergence application. Particulars: 250 g/ha, 13 days after application. How it is done: as §1, §2
Assay [9] concerns Zea mays (ZEAMX, corn, maize, e.g. volunteer corn). Described as above. Particulars: 250 g/ha, 13 days after application. Here is the method: as §1, §2
Assay [10] deals with Setaria faberi (SETFA). The assay is described as above. Particulars: 250 g/ha, 13 days after application. Here is the method: as §1, §2
The test system of assay [11] is Lolium perenne (LOLPE). Described as above. Particulars: 250 g/ha, 13 days after application. How it is done: as §1, §2
Assay [12] has as its system Amaranthus retroflexus (AMARE). The assay is described as above. Particulars: 250 g/ha, 13 days after application. Here is the method: as §1, §2
The subject of assay [13] is Echinochloa crus-galli (ECHCG). Described as above. Particulars: 250 g/ha, 13 days after application. How it is done: as §1, §2

With `CC#Cc1cc(F)c(C2C(=O)C3C(C2=O)[C@H]2CC[C@@H]3O2)c(OC)c1` (stereo partly shown) [Compound A16], the pest or weed control at 30 g/ha in [1] (30 g/ha) stood at 0%; in assay [2] (30 g/ha), 90%; in the assay on Setaria faberi (SETFA) [3] (30 g/ha), 70%; in assay [5] (30 g/ha) it was 0%; in assay [6] (30 g/ha) it was 90%. The pest or weed control at 250 g/ha in assay [1] (250 g/ha) was 70%; in assay [2] (250 g/ha) it was 100%; in the assay on Setaria faberi (SETFA) [3] (250 g/ha), 90%; in assay [5] (250 g/ha) it was 10%; in assay [6] (250 g/ha) it was 100%. Besides, the results for the “Percentage phytotoxicity LOLPE” value with Lolium perenne (LOLPE) [4] (30 g/ha), with Lolium perenne (LOLPE) [4] (250 g/ha) and in the assay with Lolium perenne (LOLPE) [11] were 70%, 90% and 90%, respectively. In addition, the “post-emergent herbicidal potency against grassy monocotyledonous weeds (in words)” value in [7] is listed as “potent post-emergent herbicides”. In assay [8], the “Percentage phytotoxicity ABUTH” value was 0%. The “Percentage phytotoxicity ZEAMX” value in assay [9] was 90%. The “Percentage phytotoxicity SETFA” value in the assay on Setaria faberi (SETFA) [10] is 70%. Besides, in assay [12], the “Percentage phytotoxicity AMARE” value was 30%. For the same compound, in assay [13], the “Percentage phytotoxicity ECHCG” value is listed as 90%.
